{"source": "paper PMC6387077", "about": "“Interaction of Halictine-Related Antimicrobial Peptides with Membrane Models” (International Journal of Molecular Sciences, 2019)", "key": {"Bacillus subtilis": {"system": "Bacillus subtilis", "settings": "ref [19]; cited from earlier work", "text": "(§1) Table 1 Amino acid sequences, physico-chemical and biological properties (µH is the hydrophobic moment, and H represents the mean hydrophobicity, calculated according to [27]), of the studied antibacterial HAL-1 peptides. Data were taken from ref. [19]. Point mutations with respect to the natural HAL-1 peptide are underlined. The Schiffer−Edmundson wheel projection of the HAL-1 and its analogs | column: Antimicrobial Activity MIC (µM) / B.^1"}, "Staphylococcus aureus": {"system": "Staphylococcus aureus", "settings": "ref [19]; cited from earlier work", "text": "as §1, with “S.^2” for “B.^1”"}, "red blood cells": {"system": "red blood cells", "settings": "hemolytic activity against red blood cells; ref [19]; cited from earlier work", "text": "as §1, with “Hemolytic LC50” for “Antimicrobial Activity MIC”, “(µM)” for “(µM) / B.^1”"}, "Escherichia coli": {"system": "Escherichia coli", "settings": "ref [19]; cited from earlier work", "text": "as §1, with “E.^3” for “B.^1”"}, "Pseudomonas aeruginosa": {"system": "Pseudomonas aeruginosa", "settings": "ref [19]; cited from earlier work", "text": "as §1, with “P.^4” for “B.^1”"}, "[1]": {"experiment": "Concentration dependence of ECD and VCD spectra (aggregation)", "assay_type": "physicochemical", "settings": "aqueous solution, 100 mg/mL peptide, room temperature, ECD and VCD read-out", "text": "In order to clarify the discrepancy between the results of the peptide conformational analyses obtained by ECD and IR, we have complemented our study by a measurement of concentration dependencies of ECD spectra of the HAL-1 peptides (Figure 9). […] In order to determine the peptide conformational change induced by its high concentration more specifically, we have performed measurements of VCD spectra of the peptides (Figure 10) using the highest peptide concentration studied by ECD (i.e., 100 mg/mL). VCD measurements supported the results of ECD analysis, confirming that at high peptide concentration, HAL-1 and its analogs HAL-1/6, HAL-1/10, and HAL-1/20 spontaneously form the α-helical structure, indicated by a negative/positive VCD couplet in the amide I region. On the contrary, the HAL-1/2 analog (Figure 10b) seems to undergo a distinct conformational change, forming highly organized β-sheet aggregates (β-sheet fibrils) characterized by an intense five-peak VCD signal with the (−/−/+/−/−) sign pattern in the amide I and II region. […]\nConcentration dependence was measured for all the peptides at the given concentrations: 0.1, 10, and 100 mg/mL. […] The α-helical fraction was calculated using a two-state model. […]\nVCD spectra were measured on a dual source and dual photo-elastic modulator [67] […]"}}, "data": [{"sequence": "GMWSKILGHLIR [HAL-1]", "values": [{"measurement": "Antimicrobial Activity MIC B.", "setting": "Bacillus subtilis", "value": 0.8, "unit": "µM"}, {"measurement": "Antimicrobial Activity MIC S.", "setting": "Staphylococcus aureus", "value": 7.7, "unit": "µM"}, {"measurement": "Hemolytic LC50", "setting": "red blood cells", "value": 82, "unit": "µM"}, {"measurement": "Antimicrobial Activity MIC E.", "setting": "Escherichia coli", "value": 3.8, "unit": "µM"}, {"measurement": "Antimicrobial Activity MIC P.", "setting": "Pseudomonas aeruginosa", "value": 45.0, "unit": "µM"}]}, {"sequence": "GMWSKILGHLIK [HAL-1/6, HAL-1 analog, Arg12 replaced by Lys]", "values": [{"measurement": "Antimicrobial Activity MIC B.", "setting": "Bacillus subtilis", "value": 1.3, "unit": "µM"}, {"measurement": "Antimicrobial Activity MIC S.", "setting": "Staphylococcus aureus", "value": 15.8, "unit": "µM"}, {"measurement": "Hemolytic LC50", "setting": "red blood cells", "value": 132, "unit": "µM"}, {"measurement": "Antimicrobial Activity MIC E.", "setting": "Escherichia coli", "value": 7.2, "unit": "µM"}, {"measurement": "Antimicrobial Activity MIC P.", "setting": "Pseudomonas aeruginosa", "value": 65.0, "unit": "µM"}]}, {"sequence": "GKWSKILGKLIR [HAL-1/20, HAL-1 analog, Met2 and His9 substituted by Lys]", "values": [{"measurement": "Antimicrobial Activity MIC B.", "setting": "Bacillus subtilis", "value": 1.7, "unit": "µM"}, {"measurement": "Antimicrobial Activity MIC S.", "setting": "Staphylococcus aureus", "value": 21.7, "unit": "µM"}, {"measurement": "Hemolytic LC50", "setting": "red blood cells", "value": ">200", "unit": "µM"}, {"measurement": "Antimicrobial Activity MIC E.", "setting": "Escherichia coli", "value": 2.3, "unit": "µM"}]}, {"sequence": "GMWSKILGPLIR [HAL-1/2, HAL-1 analog, His9 substituted by Pro]", "values": [{"measurement": "Antimicrobial Activity MIC B.", "setting": "Bacillus subtilis", "value": 3.6, "unit": "µM"}, {"measurement": "Antimicrobial Activity MIC S.", "setting": "Staphylococcus aureus", "value": ">100", "unit": "µM"}, {"measurement": "Aggregation at high peptide concentration", "setting": "[1]", "value": "form β-aggregates"}, {"measurement": "Hemolytic LC50", "setting": "red blood cells", "value": ">200", "unit": "µM"}, {"measurement": "Antimicrobial Activity MIC E.", "setting": "Escherichia coli", "value": 30.0, "unit": "µM"}, {"measurement": "Antimicrobial Activity MIC P.", "setting": "Pseudomonas aeruginosa", "value": ">100", "unit": "µM"}]}, {"sequence": "GMWKKILGKLIR [HAL-1/10, HAL-1 analog, Ser4 and His9 substituted by Lys]", "values": [{"measurement": "Antimicrobial Activity MIC B.", "setting": "Bacillus subtilis", "value": 0.8, "unit": "µM"}, {"measurement": "Antimicrobial Activity MIC S.", "setting": "Staphylococcus aureus", "value": 15.0, "unit": "µM"}, {"measurement": "Hemolytic LC50", "setting": "red blood cells", "value": ">200", "unit": "µM"}, {"measurement": "Antimicrobial Activity MIC E.", "setting": "Escherichia coli", "value": 2.3, "unit": "µM"}, {"measurement": "Antimicrobial Activity MIC P.", "setting": "Pseudomonas aeruginosa", "value": 13.1, "unit": "µM"}]}]}
